Data on 1 compound can be found in patent EP1695704A1, “Derivatives of aryl (or heteroaryl) azolylcarbinols for the treatment of fibromyalgia” (LABORATORIOS DEL DR. ESTEVE, S.A., priority 2005, dated 2006).

Usually ED50 stands for the midpoint of the dose-response relation. The low end stands for greater potency, the high end for weaker potency. Broadly, the inhibition is the percentage by which the read-out fell short of the control. Read a high inhibition as a response far below the control.

Holding throughout (format): in vivo
Assay [1] relates to Mice. The assay can be described thus: Depression, Mice tail Suspension. The following applies: Mus musculus, po. On the procedure: Depression, Mice tail Suspension
Mice were prepared according to the Model described by
The inhibition shown by the compound according to example 1 was: […]

The subject of assay [2] is Unilateral ligature of the sciatic nerve. The assay can be described thus: Neuropathic pain, Bennet model, mechanical response thresholds. The following applies: rats with sciatic nerve ligature; dose-effect study; Figure 1. An excerpt:
Neuropathic Pain - Dose-effect study of Example 1 Phase I (Bennet model): Unilateral ligature of the sciatic nerve (mechanical response thresholds)
According to the Model described by Bennet (Bennet and Xie, Pain 1988, 33, 87-107) a well established model for neuropathic pain, rats were operated with the following surgical procedure,
(§1) Rats were anaesthesized using Pentobarbital. Then the skin was incised. Following that a sciatic nerve ligature was placed and the incision was closed with silk thread.
(§2) In Sham-operated control animals the identical surgical procedures were followed, but the nerve was not ligatured.

Assay [3] concerns ptosis by reserpine in mice. The assay can be described thus: Depression, Reserpine test. The note with it: Mus musculus, po. On the procedure: Depression, Reserpine test
Mice were prepared according to the Model described by C.J.E. Niemegeers "Antagonism of Reserpine-like activity" in "Antidepressants", Ed. by S. Fielding, Futura Publishing Co., New York 1975. Pags 73-98 and Garattini S. et al. "Antagonists of Reserpine-induced eyelid ptosis" Med.Exp. 3 : 315-320 (1960):
The inhibition shown by the compound according to example 1 in ptosis by reserpine in mice was: […]

Assay [4] concerns Unilateral ligature of the sciatic nerve. The assay can be described thus: Neuropathic pain, Bennet model, thermal response thresholds. The following applies: rats with sciatic nerve ligature; dose-effect study; Figure 2.
From the text: Neuropathic Pain - Dose-effect study of Example 1 Phase I (Bennet model): Unilateral ligature of the sciatic nerve (thermal response thresholds)
According to the Model described by Bennet (Bennet and Xie, Pain 1988, 33, 87-107) a well established model for neuropathic pain, rats were operated with the following surgical procedure:
as §1, §2

Take `CN(C)CCOC(c1ccccc1)c1ccnn1C` (racemic) [Example 1, (±)-5-{α-[2-(dimethylamino)ethoxy]benzyl}-1-methyl-1H-pirazole]: the ED50 in assay [1] was 17 mg/kg; in assay [3], 26.2 mg/kg. Moreover, the inhibition at 10 mg/kg came out at 38% in assay [1] (dose 10 mg/kg p.o.) and 21% in assay [3] (dose 10 mg/kg p.o.). In addition, the values for the inhibition at 20 mg/kg in assay [1] (dose 20 mg/kg p.o.) and in assay [3] (dose 20 mg/kg p.o.) were 54% and 47%, respectively. The inhibition at 40 mg/kg in assay [1] (dose 40 mg/kg p.o.) was 71%; in assay [3] (dose 40 mg/kg p.o.), 75%. For the same compound, the results for the inhibition at 80 mg/kg in assay [1] (dose 80 mg/kg p.o.) and in assay [3] (dose 80 mg/kg p.o.) were 70% and 75%, respectively. Also, the “effect on vocalization threshold using a mechanical stimulus” value in assay [2] is on record as “clear dose-dependent effect”. Further, 160 mg/kg produced 71% inhibition in assay [3] (dose 160 mg/kg p.o.). The “effect on struggle latency in a low temperature thermal response threshold” value in assay [4] is given as “clear dose-dependent effect”.
